Values after ≈ are worked out from the molar mass of the structure shown.
Assays:
[1] = system: MT2; experiment: Inhibition concentration required to protect 50% of cells(MT-2) from HIV induced death was determined; type: functional; settings: Homo sapiens, read-out: TC50 (the source's name)
[2] = system: MT2; experiment: Inhibition concentration required to protect 90% of cells(MT-2) from HIV induced death was determined; type: functional; settings: Homo sapiens
[3] = system: MT2; experiment: Inhibition concentration required to protect 50% of cells(MT-2) from HIV-1(rod) induced death was determined; type: functional, cell-based; settings: Homo sapiens
[4] = system: MT2; experiment: Inhibition concentration required to protect 90% of cells(MT-2) from HIV-1(3b) induced death was determined; type: functional; settings: Homo sapiens
[5] = system: MT2; experiment: Inhibition concentration required to protect 50% of cells(MT-2) from HIV-1(3b) induced death was determined; type: functional; settings: Homo sapiens, read-out: TC50 (the source's name)
[6] = system: MT2; experiment: Inhibition concentration required to protect 90% of cells(MT-2) from HIV-1(rf) induced death was determined; type: functional; settings: Homo sapiens
[7] = system: Human immunodeficiency virus 1; experiment: (§1) Inhibitory concentration against HIV-1 was determined; type: functional
[8] = system: Human immunodeficiency virus 1; experiment: as §1; type: functional, organism-based

| Compound | CC50 [1] [µg/mL] | IC90 [2] [µg/mL] | further results |
| --- | --- | --- | --- |
| O=C1Nc2ccccc2-c2cccn2[C@H]1Cc1ccccc1 | 21 (≈ 72.8 µM) | > 21 | – |
| O=C1Cn2cccc2-c2ccccc2N1 | > 50 | > 50 | – |
| O=C(C[C@H]1C(=O)Nc2ccccc2-c2cccn21)OCc1ccccc1 | 10 (≈ 28.9 µM) | 0.29 (≈ 0.837 µM) | IC50 [3]: 3 µg/mL (≈ 8.66 µM); IC90 [4]: > 0.3 µg/mL; CC50 [5]: > 10 µg/mL; IC90 [6]: 0.29 µg/mL (≈ 0.837 µM); IC90 [7]: 800 nM |
| O=C1c2ccccc2C(=O)N1CCCCCN1C(=O)[C@H](Cc2ccc(O)cc2)n2cccc2-c2ccccc21 | > 50 | 2.6 (≈ 5 µM) | – |
| O=Cc1ccc2n1CC(=O)Nc1ccccc1-2 | > 50 | > 50 | – |
| CN1C(=O)[C@H](Cc2ccc(O)cc2)n2cccc2-c2ccccc21 | 5.2 (≈ 16.3 µM) | > 5.2 | – |
| O=C(O)C[C@H]1C(=O)Nc2ccccc2-c2cccn21 | > 50 | > 50 | – |
| O=C1[C@H](Cc2ccc(O)cc2)n2cccc2-c2ccccc2N1CCc1ccc(O)cc1 | 10 (≈ 23.6 µM) | 0.8 (≈ 1.88 µM) | – |
| O=C1c2ccccc2C(=O)N1CCCCN1C(=O)[C@H](Cc2ccc(O)cc2)n2cccc2-c2ccccc21 | 23 (≈ 45.5 µM) | > 23 | – |
| O=Cc1ccc2n1[C@@H](Cc1ccccc1)C(=O)Nc1ccccc1-2 | 2.5 (≈ 7.9 µM) | > 2.5 | – |
| O=C1Nc2ccccc2-c2cccn2[C@H]1Cc1ccc(O)cc1 | 23 (≈ 75.6 µM) | > 23 | – |
| CC(C)=CCN1Cc2cccc3[nH]c(=S)n(c23)C[C@@H]1C | – | – | IC50 [8]: 28 nM |
| Cc1ccnc2c1NC(=O)c1cccnc1N2C1CC1 [NEVIRAPINE] | – | – | IC50 [8]: 40 nM |
| CC(C)=CCN1Cc2cc(Cl)cc3nc(S)n(c23)CC1C (stereo not drawn) [TIBO] | – | – | IC50 [3]: > 50 µg/mL; IC90 [4]: 1.5 µg/mL (≈ 4.66 µM); CC50 [5]: 55 µg/mL (≈ 171 µM); IC90 [6]: 0.15 µg/mL (≈ 0.466 µM) |
